Experimental findings from patent publication US5994375A, “Benzamidine derivatives substituted by amino acid and hydroxy acid derivatives and their use as anti-coagulants” (Berlex Laboratories, Inc., priority 1996, dated 1999) are described below.

Assay [1] has as its target T1, Human tissue plasminogen activator (tPA) (Two chains, Sigma) (Homo sapiens, UniProt P00750).
T1 construct: purchased Sigma
Nature of the assay: In vitro chromogenic assay for tissue plasminogen activator (cleavage of peptide p-nitroanilide S2288). The conditions noted are these: substrate concentration stated equal to its Km under the assay conditions; 10 nM tPA, pH 7.5, ambient temperature. The format is biochemical. The protocol: (§1) The activities were determined as an initial rate of cleavage of the peptide p-nitroanilide by the enzyme. The cleavage product, p-nitroaniline, absorbs at 405 nm with a molar extinction coefficient of 9920 M^-1 cm^-1.
(§2) 50 mM TrisHCl, 150 mM NaCl, 2.5 mM CaCl2, and 0.1% polyethylene glycol 6000, pH 7.5.
3. Human tissue plasminogen activator (tPA) (Two chains, Sigma) stock solution: 1 mg/mL, stored at -80° C. (working solution (2×): 1361 ng/mL in assay buffer, prepare prior to use).
3. S2288 (tPA assay) stock solution: 10 mM in dH2 O, stored at 4° C. (working solution (4×): 1484 μM in assay buffer).
Assays were performed in 96-well microtiter plates in a total volume of 200 μl. […] Concentrations of the standard inhibitor compound in the assay were from 5 μM to 0.021 μM in 1 to 3 dilution. Concentration of the test compounds in the assay typically were from 10 μM to 0.041 μM in 1 to 3 dilution. For potent test compounds, the concentrations used in the factor Xa assay were further diluted 100 fold (100 nM to […]) or 1000 fold (10 nM to 0.041 nM). All substrate concentrations used are equal to their Km values under the present assay conditions. Assays were performed at ambient temperature. […]
(§3) The enzyme kinetics were measured at 405 nm at 10 seconds intervals for five minutes in a THERMOmax plate reader at ambient temperature.

The target of the next assay is T2, Human thrombin (Homo sapiens, UniProt P00734).
T2 construct: Human thrombin stock solution; purchased Enzyme Research Lab
In words: In vitro chromogenic assay for thrombin (cleavage of peptide p-nitroanilide S2302). It counts as biochemical. The conditions noted are these: substrate concentration stated equal to its Km under the assay conditions; 20 nM thrombin, pH 7.5, ambient temperature. Here is the method:
as §1, §2
2. Human thrombin stock solution: Stored at -80° C. (working solution (2×): 1200 ng/mL or 40 nM in assay buffer, prepare prior to use).
2. S2302 (Thrombin assay) stock solution: 10 mM in dH2 O, stored at 4° C. (working solution (4×): 1200 μM in assay buffer).
Assays were performed in 96-well microtiter plates in a total volume of 200 μl. […] Concentrations of the standard inhibitor compound in the assay were from 5 μM to 0.021 μM in 1 to 3 dilution. Concentration of the test compounds in the assay typically were from 10 μM to 0.041 μM in 1 to 3 dilution. For potent test compounds, the concentrations used in the factor Xa assay were further diluted 100 fold (100 nM to […]) or 1000 fold (10 nM to 0.041 nM). […]
as §3
Enzyme rates were calculated as mOD/min based on the first two minutes readings. The IC50 values were determined by fitting the data to the log-logit equation (linear) or the Morrison equation (non-linear) with an EXCEL spread-sheet. […]

Each structure is given as a SMILES string. Square brackets hold non-standard residues; d marks the D form. Peptide text beside a SMILES is read from it. * marks the point of attachment. pNA = O=[N+]([O-])c1ccc(N*)cc1

A word on the Km: it is the concentration of substrate that gives half-maximal velocity.

T1 sequence (P00750 311-562 limits assumed): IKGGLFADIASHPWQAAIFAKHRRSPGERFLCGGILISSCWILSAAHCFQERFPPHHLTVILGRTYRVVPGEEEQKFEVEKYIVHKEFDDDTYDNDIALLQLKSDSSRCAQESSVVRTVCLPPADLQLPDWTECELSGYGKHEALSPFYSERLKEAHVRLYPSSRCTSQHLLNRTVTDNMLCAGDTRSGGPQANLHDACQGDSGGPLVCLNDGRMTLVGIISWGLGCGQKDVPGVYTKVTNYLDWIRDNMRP
T1 sequence (P00750 36-310 partner limits assumed): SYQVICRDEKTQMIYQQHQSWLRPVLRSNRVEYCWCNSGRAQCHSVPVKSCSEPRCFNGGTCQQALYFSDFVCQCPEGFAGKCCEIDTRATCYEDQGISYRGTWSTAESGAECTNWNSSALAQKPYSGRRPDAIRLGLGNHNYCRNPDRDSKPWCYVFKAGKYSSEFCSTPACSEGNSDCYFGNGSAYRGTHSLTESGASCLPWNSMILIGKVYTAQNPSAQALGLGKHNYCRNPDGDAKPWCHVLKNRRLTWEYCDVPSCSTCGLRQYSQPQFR

Regarding `CC[C@@H](C)[C@@H](N)C(=O)N1CCC[C@H]1C(=O)N[C@@H](CCCN=C(N)N)C(=O)Nc1ccc([N+](=O)[O-])cc1` [Example S2288] (H-[dI]-Pro-Arg-pNA), in assay [1], the Km came out at 371 µM.

In the case of `N=C(N)NCCC[C@H](NC(=O)[C@H](Cc1ccccc1)NC(=O)[C@H]1CCCN1)C(=O)Nc1ccc([N+](=O)[O-])cc1` [Example S2302] (H-[dP]-Phe-Arg-pNA), the Km at Human thrombin was 300 µM.
